Laboratory results: patent publication US20040063742A1 (priority 2001, published 2004)

Legend:
dopamine transporter = target: T1, dopamine transporter (Rattus norvegicus, UniProt P23977); assay: Inhibition of in vitro [3H]WIN 35428 binding to the dopamine transporter in rat striatal synaptosomes; conditions: [3H]WIN 35428 1 nM
T1 construct: Striata from male Wistar rats (150-200 g) are homogenized; from tissue; host or cells: rat striatum (male Wistar), membrane pellet
Description: Inhibition of In Vitro [^3H]WIN 35428 Binding to the Dopamine Transporter in Rat Striatal Synaptosomes
In this method the ability of test compounds to inhibit the binding of WIN 35428 to the dopamine transporter in vitro is assessed.
Tissue preparation: Striata from male Wistar rats (150-200 g) are homogenized for 5-10 sec in 10 ml NaH2PO4 (50 mM, pH 7.4) using an Ultra-Turrax homogenizer. The suspension is centrifuged at 27,000×g for 15 min. The supernatant is discarded and the pellet is resuspended in phosphate buffer (1000 ml per g of original tissue) and used for binding assays.
Binding assays: Aliquots of 0.5 ml tissue suspension are added to 0.025 ml of test solution and 0.025 ml of [^3H]WIN 35428 (1 nM, final concentration), mixed and incubated for 60 min at 2° C. Non-specific binding is determined using cocaine (30 μM, final concentration).
After incubation 5 ml of ice-cold buffer is added to the samples and poured directly onto Whatman GF/C glass fiber filters (for the [^3H]GBR 12935 assay the filters are presoaked in 0.1% PEI for at least 20 min) under suction and immediately washed with 5 ml ice-cold buffer. The amount of radioactivity on the filters is determined by conventional liquid scintillation counting using a Tri-carb liquid scintillation analyzer (model 1600CA; Packard, USA). […]

[1] = target: T2, 3H-dopamine uptake in striatal synaptosomes (Rattus norvegicus, UniProt P23977); assay: In vitro inhibition of 3H-dopamine (3H-DA) uptake in striatal synaptosomes; format: biochemical
T2 construct: Corpi striati from male Wistar rats (150-200 g) are homogenised; from tissue; host or cells: rat corpus striatum (male Wistar), P2 synaptosomal pellet
Description: In vitro Inhibiti n of ^3H-dopamin (3H-DA) Uptake in Striatal Synaptosom s
In this test, the ability of a compound enhancing the dopamine activity (below: the test compound) to inhibit the uptake of ^3H-dopamine in striatal synaptosomes is assessed.
Tissue preparations: Preparations are performed at 0-4° C. unless otherwise indicated. Corpi striati from male Wistar rats (150-200 g) are homogenised for 5-10 sec in 100 volumes of ice-cold 0.32M sucrose containing 1 mM pargyline using an Ultra-Turrax homogenizer. Monoamine oxidase activity will be inhibited in the presence of pargyline. The homogenate is centrifuged at 1000×g for 10 min. The resulting supernatant is then centrifuged at 27,000×g for 50 min and the supernatant is discarded. […]
Assay: Aliquots of 4.0 ml tissue suspension are added to 100 μl of test solution and 100 μl of ^3H-DA (1 nM, final concentration), mixed and incubated for 25 min at 37° C. Non-specific uptake is determined using benztropine (10 μM, final concentration). […] The amount of radioactivity on the filters is determined by conventional liquid scintillation counting. Specific uptake is calculated as the difference between total uptake and non-specific uptake. […]

[2] = system: dopaminergic neurons in dissociated cultures from rat E14 ventral mesencephali; assay: Survival of embryonic rat dopaminergic neurons; format: cell-based; conditions: TH-immunoreactive cells, 7 days in culture
Description: Survival of Embryonic Rat Dopaminergic Neurons
In this experiment the effect of a test compound on the survival of dopaminergic neurons in dissociated cultures established from rat E14 ventral mesencephali (VM) is assessed.
Embryonic rat brains (Wistar; E14) were isolated under sterile conditions placed in chilled Gey's balanced salt solution (GIBCO) with glucose (6.5 mg/ml).
The ventral mesencephali were dissected out, cut into small tissue pieces, placed in Neurobasal medium with B27 supplement and gently pressed through a 80 μm Nitex filter. The cells were counted using a hemocytometer and plated in a 6 well multi-dish at a density of approximately 2.0×10^6 cells/well. Culture dishes were pre-coated with poly-D-lysine.
After 1 hour, the medium was removed and fresh medium added (1.5 ml/well). […] Untreated cultures served as controls. The medium was changed every other day and antimitotics and antibiotics were not used at any stage.
After 7 days in culture, cultures were then immunostained for tyrosine hydroxylase (TH). Briefly, the cells were washed in 0.05M tris-buffered saline (TBS, pH 7.4) containing 1% Triton X-100 for 3×15 minutes and incubated with 10% foetal bovine serum (FBS, Life Technologies) in TBS for 30 minutes. The cells were then incubated for 24 hours at 4° C. with monoclonal mouse anti-TH antibody (Boehringer Mannheim) diluted 1:600 in TBS with 10% FBS. After rinsing in TBS with 1% Triton X-100 for 3×15 minutes, cells were incubated for 60 minutes with biotinylated anti-mouse IgG antibody (Amersham) diluted 1:200 in TBS with 10% FBS. The cells were then washed in TBS with 1% Triton X-100 (3×15 minutes) and incubated for 60 minutes with streptavidine-peroxidase (Dako) diluted 1:200 in TBS with 10% FBS. After washing in TBS (3×15 minutes), bound antibody was visualised by treatment with 0.05% 3,3-diaminobenzidine (Sigma) in TBS containing 0.01% H2O2. TH-immunoreactive (ir) cells were counted manually.

T1 sequence (P23977 whole entry): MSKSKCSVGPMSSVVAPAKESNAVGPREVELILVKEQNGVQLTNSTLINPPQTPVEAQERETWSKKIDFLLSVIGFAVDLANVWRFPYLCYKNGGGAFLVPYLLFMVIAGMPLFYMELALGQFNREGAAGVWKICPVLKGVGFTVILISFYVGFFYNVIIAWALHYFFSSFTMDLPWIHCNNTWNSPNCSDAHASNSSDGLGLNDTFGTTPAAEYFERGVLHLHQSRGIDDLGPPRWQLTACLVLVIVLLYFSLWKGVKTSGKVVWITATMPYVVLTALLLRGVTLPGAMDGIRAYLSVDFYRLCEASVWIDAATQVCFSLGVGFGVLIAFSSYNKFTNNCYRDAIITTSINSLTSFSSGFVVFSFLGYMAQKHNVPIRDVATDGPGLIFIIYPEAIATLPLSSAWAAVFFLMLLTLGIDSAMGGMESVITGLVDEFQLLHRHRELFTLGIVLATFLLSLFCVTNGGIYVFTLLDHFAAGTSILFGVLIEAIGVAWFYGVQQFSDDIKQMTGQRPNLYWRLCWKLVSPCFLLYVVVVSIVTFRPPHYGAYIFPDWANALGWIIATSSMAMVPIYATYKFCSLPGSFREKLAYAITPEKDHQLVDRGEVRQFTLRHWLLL
T2 sequence (P23977 whole entry): as above

Structure (SMILES): O=C1Nc2c(cc(-c3ccc(Cl)cc3)c3c2CCCC3)C1=NO [compound a, 5-(4-Chlorophenyl)-6,7,8,9-tetrahydro-1-H-pyrrolo[3.2-h]naphthalene-2,3-dione-3-oxime]
- IC50 (dopamine transporter): 140 nM
- IC50 [1]: 34 nM
- Inhibition of cell loss ([2]; 0.3 μM compound a): 74%
- Inhibition of cell loss ([2]; 1.0 μM compound a): 62%
- Inhibition of cell loss ([2]; 3.0 μM compound a): 17%
